Columns and labels:
[1] = test system: right breast tumor; experiment: Example 12: rods implanted in breast tumor; assay type: in vivo, human
[2] = test system: metastatic prostate cancer; experiment: Phase I clinical trial of Rhodamine 123 intra-venous infusions; assay type: in vivo, human; conditions: for a 70 kg patient
Experimental: The Huntington Medical Research Institutes are addressing this issue in metastatic prostate cancer (Lawrence W. Jones, M. D. Huntington Memorial Hospital). Recently this institute published the results of a clinical trial where 33 patients with metastatic prostate cancer were treated with Rhodamine 123 intra-venous infusions.
Because inhibitors of oxidative phorphorylation are extremely toxic to a subject in the doses needed for efficacy via the systemic route, such inhibitors have been largely overlooked for effective treatment of conditions such as cancer. […] It is also known that the maximal tolerated dose of Rhodamine 123 delivered intra-venously in man is 95 mg/m^2. For a 70 kg patient, the maximum dose of systemically delivered rhodamine is about 150 mg. […] There was an accumulation of rhodamine in the prostate of the patients, but it was not sufficient to provoke a significant response.

[3] = test system: tumour; experiment: Rhodamine delivered directly in the tumour (slow release); assay type: in vivo; conditions: 40 or 50 mg directly in the tumour
Description: By locally delivering oxidative phosphorylation inhibitors into proliferating cells in a slow release formulation, the delivery period is prolonged i.e. the inhibitors are not cleared by the liver, and the dose received by the tumour is effectively higher than using systemic delivery. Furthemore, the lethal dose can be greatly exceeded. […] Such a dose, delivered systemically, would require 100 g of rhodamine, more than 1000 times the lethal dose. Thus, a composition comprising an oxidative phorphosrylation inhibitor in a slow release formulation increases the effective dose to the tumour and permits greater than lethal dosing.

[4] = test system: metastatic prostate cancer; conditions: cited from earlier work
[5] = test system: metastasis in the 10th dorsal vertebra from a breast tumor; experiment: Example 14: intratumoural injection into vertebral metastasis; assay type: in vivo, human; conditions: on the next day; 20 mg as SLN in 1 ml poly(orthoesther) paste
Experimental: A person presents with metastases originating from a breast tumor operated and irradiated 3 years before. […] The patient is young and one wants to keep radiotherapy for further recurrences. They benefit from an intratumoural injection of 1 ml of polymeric paste (poly(orthoesther)), containing 20 mg of Antimycin A formulated as SLN. The paste is deposited in the center of the metastasis under fluoroscopy control. The pain drops on the next day by ⅔. […] This allows to visualize the elution rate and the melting process of the polymer, and to better follow and understand the kinetics of the treatment.
At 3 weeks the polymer has nearly totally disappeared, and the patient is sent for the injection of a cement (methylmethacrylate) inside the vertebra, under fluoroscopy. The pain disappears totally and the patient is followed up locally, ready to be treated when new metastases appear.

[6] = rodents; cited from earlier work
[7] = test system: right axillar lymphnode (recurrence of melanoma); experiment: Example 11: slow release injection into melanoma axillar lymphnode; assay type: in vivo, human
[8] = test system: meningioma; experiment: Example 16: stereotactic injection into meningioma; assay type: in vivo, human
[9] = test system: lymphnode in the left cervical area (tonsillar carcinoma); experiment: Example 13: rods implanted in cervical lymphnode; assay type: in vivo, human
Experimental: A patient presents with a 10 cm diameter lymphnode located in the left cervical area. […] The patient refuses any kind of prolonged therapy. They accept a tumour implantation of a slow release drug. Fourteen 7 cm long rods of lactide-capronolactone containing rotenone, are implanted. The total dose of rotenone delivered over 2 weeks by the rods is 60 mg. […] The patient accepts radiation therapy.

What does the source list for sodium arsenate?
tumor diameter ([1]; after second session, 3 rods, total dose 30 mg): 3 cm; tumor diameter ([1]; initially 6 cm, 2 months after four rods with 10 mg each): 4 cm

Which “maximum dose of systemically delivered rhodamine” value [2] does the source give for rhodamine here?
The value was “about 150 mg”.

What about the tumour outcome [3] of the same compound?
The tumour outcome was “tumour death”.

And the “effect on prostate tumours” value ([4]; systemic, at the maximum non-lethal dose)?
The value was “no useful effect”.

Which drop of pain [5] does the source give for Antimycin A here?
Its drop of pain is “⅔”.

With rhodamine 123 as the compound, how does the “LD10 (the dose which kills 10% of animals)” value [6] read?
Its value is 20 mg/kg.

And the tumour response ([4]; 33 patients with metastatic prostate cancer, intra-venous infusions)?
The tumour response was “no significant tumour response”.

What about the PSA change ([4]; 33 patients with metastatic prostate cancer, intra-venous infusions, in some cases) of the same compound?
Its PSA change is “slight PSA reduction”.

And the maximal tolerated dose ([4]; delivered intra-venously in man)?
The maximal tolerated dose was 95 mg/m^2.

With `O=C(O)CF` [fluoroacetate] as the compound, how does the remaining induration size ([7]; 6 months later, after additional 6 sessions of radiotherapy at 5 Gy) read?
The remaining induration size was 1 cm.

What about the lymphnode size ([7]; initially 5 cm, 1 month after 4 mg fluoroacetate slow release) of the same compound?
The lymphnode size was 3 cm.

And the “lesion finding on MRI” value ([8]; MRI two months after 4 mg in poly(ortho)ester)?
Its value is “partial necrosis”.

What about the “tumour necrosis on histological examination” value ([8]; after surgical intervention) of the same compound?
The value was 80%.

What about the lesion size ([8]; initially 3 cm, MRI two months after 4 mg in poly(ortho)ester) of the same compound?
Its lesion size is 2.5 cm.

Which results are given for `C=C(C)[C@H]1Cc2c(ccc3c2O[C@@H]2COc4cc(OC)c(OC)cc4[C@@H]2C3=O)O1` [rotenone]?
mass size ([9]; initially 10 cm, 6 weeks after rods delivering 60 mg over 2 weeks): 5.5 cm; lymphnode outcome ([9]; new implantation with 30 mg plus radiation dose of 50 Gy): totally disappears
